Some test systems named below: HCT-116 colon; BT-549 breast; M14 melanoma; COLO 205 colon; TK-10 renal; 786-0 renal; HOP-92 NSCLC; HOP-62 NSCLC; MCF7 breast; HS 578T breast; IGROV1 ovarian; UACC-257 melanoma; SK-MEL-5 melanoma.
Test in all cases: NCI-60 cell line screen, 48 h

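Where inhibition never reached the appropriate level, the endpoint shown equals the highest concentration tested. Otherwise, values were interpolated linearly from a five-concentration, 48-hour dose response in 96-well plates. TGI denotes the concentration required for complete inhibition of growth.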

Take `COC(=O)C1=C(OC(=O)/C(=C/c2ccc(Cl)cc2)c2ccc(Cl)cc2)C(C(=O)OC)[C@@]2(O)[C@@H](C(=O)OC)[C@H](C)C[C@@H]1[C@@H]2C(=O)OC` (stereo partly drawn): the TGI in the test on HCT-116 colon, in the test on BT-549 breast, in the test with M14 melanoma, in the test on COLO 205 colon, in the test on TK-10 renal and with 786-0 renal was above 100 µM each time. Also, the TGI in the test with HOP-92 NSCLC is above 86.9 µM; in the test on HOP-62 NSCLC, above 100 µM; in the test on MCF7 breast, above 100 µM; in the test on HS 578T breast, above 100 µM; in the test on IGROV1 ovarian, above 100 µM; in the test on UACC-257 melanoma it was above 100 µM. In the test on SK-MEL-5 melanoma, this molecule yielded a TGI above 100 µM.
On to `Cc1ccc(/C=N/Nc2cc(C)c3cccc(C)c3n2)s1`, for which the TGI in the test with HCT-116 colon is 12.4 µM; in the test with BT-549 breast, 20.8 µM; in the test on M14 melanoma it was 18.2 µM; in the test on COLO 205 colon it was 28.7 µM; in the test on TK-10 renal, above 100 µM; in the test with 786-0 renal, 11 µM. In addition, the TGI turned out to be 59.4 µM in the test with HOP-92 NSCLC; 25.7 µM in the test with HOP-62 NSCLC; 18 µM in the test on MCF7 breast; 41.6 µM in the test with HS 578T breast; 22.2 µM in the test on IGROV1 ovarian; 58.9 µM with UACC-257 melanoma. In the test on SK-MEL-5 melanoma, the TGI was 23.9 µM.
Regarding `C/C=C/C(CC(O)(C(F)(F)F)C(F)(F)F)=N/NC(N)=S`, the TGI in the test on HCT-116 colon, in the test with BT-549 breast, in the test on M14 melanoma, with COLO 205 colon, in the test with TK-10 renal and in the test with 786-0 renal was above 10 µM throughout. The TGI in the test on HOP-92 NSCLC, in the test with HOP-62 NSCLC, in the test with MCF7 breast, in the test on HS 578T breast, with IGROV1 ovarian and with UACC-257 melanoma was above 10 µM each time. The molecule further gave a TGI in the test on SK-MEL-5 melanoma above 10 µM.
For the molecule `CC(C)NC(=O)OCc1c(COC(=O)NC(C)C)c(-c2cc[n+](COC(=O)C3CC3)cc2)n2c1CCC2`, the TGI in the test with HCT-116 colon, in the test on BT-549 breast, with M14 melanoma, with COLO 205 colon, in the test with TK-10 renal and in the test with 786-0 renal was above 100 µM each time. Further, the TGI with HOP-92 NSCLC, in the test on HOP-62 NSCLC, in the test on MCF7 breast, in the test on HS 578T breast, with IGROV1 ovarian and with UACC-257 melanoma was above 100 µM throughout. This molecule also registered a TGI with SK-MEL-5 melanoma above 100 µM.
`O=c1[nH]nnc2c1sc1ncccc12`: the TGI with HCT-116 colon, in the test with BT-549 breast, in the test with M14 melanoma, in the test with COLO 205 colon, in the test on TK-10 renal and with 786-0 renal was above 100 µM each time. Also, the TGI in the test on HOP-92 NSCLC, in the test on HOP-62 NSCLC, with MCF7 breast, in the test with HS 578T breast, in the test on IGROV1 ovarian and in the test on UACC-257 melanoma was above 100 µM in each case. The TGI with SK-MEL-5 melanoma is above 100 µM.
As to `c1ccc(N=C(N2CCCC2)N(CCN2CCCC2)c2ccccc2)cc1`, the TGI is above 100 µM in the test with HCT-116 colon; 84.5 µM in the test with BT-549 breast; 27 µM with M14 melanoma; 75.4 µM in the test on COLO 205 colon; above 100 µM with TK-10 renal; above 100 µM with 786-0 renal. In addition, the TGI was above 100 µM with HOP-92 NSCLC; above 100 µM in the test with HOP-62 NSCLC; above 100 µM in the test on MCF7 breast; above 100 µM in the test on HS 578T breast; above 100 µM in the test with IGROV1 ovarian; 67.6 µM in the test on UACC-257 melanoma. The molecule also registered a TGI in the test with SK-MEL-5 melanoma of 24.5 µM.
As to `C=C(Cl)C(=CCl)CCC(Br)C(C)(C)Cl` (mixture of isomers), the TGI in the test with HCT-116 colon, in the test with BT-549 breast, in the test on M14 melanoma, in the test with COLO 205 colon, in the test with TK-10 renal and in the test on 786-0 renal was above 10 µM throughout. Also, the TGI with HOP-92 NSCLC, in the test on HOP-62 NSCLC, in the test on MCF7 breast, in the test with HS 578T breast, in the test on IGROV1 ovarian and with UACC-257 melanoma was above 10 µM throughout. This molecule came in with a TGI in the test with SK-MEL-5 melanoma above 10 µM.
Take `O=c1[nH]cnc2c1cnn2Cc1cn(CCCCO)nn1`: the TGI in the test with HCT-116 colon, with BT-549 breast, in the test on M14 melanoma, in the test with COLO 205 colon, in the test on TK-10 renal and in the test with 786-0 renal was above 100 µM each time. Moreover, the TGI in the test with HOP-92 NSCLC, with HOP-62 NSCLC, in the test with MCF7 breast, in the test with HS 578T breast, with IGROV1 ovarian and in the test with UACC-257 melanoma was above 100 µM each time. The TGI with SK-MEL-5 melanoma was above 100 µM.
As to `CC1(C)CC(=O)C(C=NC(=S)c2ccccc2)=C(O)C1`, the TGI in the test on HCT-116 colon, in the test on BT-549 breast, with M14 melanoma, with COLO 205 colon, in the test with TK-10 renal and with 786-0 renal was above 100 µM each time. Further, the TGI in the test with HOP-92 NSCLC, with HOP-62 NSCLC, in the test with MCF7 breast, in the test on HS 578T breast, with IGROV1 ovarian and in the test on UACC-257 melanoma was above 100 µM throughout. The molecule further displayed a TGI in the test with SK-MEL-5 melanoma above 100 µM.
As for `O=C1C=CC(=O)c2c1ccc1c3ccccc3n(CCCCCn3c4ccccc4c4ccc5c(c43)C(=O)C=CC5=O)c21`, the TGI in the test on HCT-116 colon amounted to 25.7 µM; in the test with BT-549 breast, 82 µM; in the test on M14 melanoma, 39.3 µM; in the test with COLO 205 colon, 34.9 µM; in the test with TK-10 renal it was 26.8 µM; with 786-0 renal it was 14.3 µM. In addition, the TGI in the test on HOP-92 NSCLC is 35.6 µM; in the test with HOP-62 NSCLC, above 100 µM; in the test with MCF7 breast, 43.3 µM; with HS 578T breast, above 78.7 µM; with IGROV1 ovarian it was 20.6 µM; in the test with UACC-257 melanoma, 39.5 µM. In addition, the TGI in the test on SK-MEL-5 melanoma is above 86.1 µM.
Consider `CN1C(=O)c2ccccc2OC12C=Cc1c(ccc3ccccc13)O2` (stereo not drawn), for which the TGI in the test on HCT-116 colon is 14.2 µM; in the test with BT-549 breast it was above 56.6 µM; in the test with M14 melanoma it was 17.1 µM; in the test with COLO 205 colon it was 10.8 µM; in the test with TK-10 renal, above 61 µM; in the test on 786-0 renal it was 25.7 µM. Besides, the TGI is 8.47 µM with HOP-92 NSCLC; 27.3 µM in the test on HOP-62 NSCLC; above 44.6 µM with MCF7 breast; 33.1 µM in the test on HS 578T breast; 30.8 µM in the test on IGROV1 ovarian; 36.3 µM with UACC-257 melanoma. For the same molecule, the TGI in the test with SK-MEL-5 melanoma worked out at 23 µM.

The values are drawn from PubChem BioAssay (NCI).
